The values below come from publication PMC5503601 (Oncotarget, 2017).

One may read the Kd as the concentration at which binding is half-saturated. As usually defined, the IC50 is the midpoint of a concentration-inhibition curve.

Several values for one entry are separate records, joined by “and”; a condition that tells them apart may be missing. Identical values can stand only once. Like-named read-outs stand apart in the source and are kept apart here.

One data set deals with T1, TOPK (Homo sapiens, UniProt Q96KB5).
T1 construct: hexa-histidine; made in house; host or cells: Escherichia coli BL21 (DE)
T1 sequence (Q96KB5 1-322): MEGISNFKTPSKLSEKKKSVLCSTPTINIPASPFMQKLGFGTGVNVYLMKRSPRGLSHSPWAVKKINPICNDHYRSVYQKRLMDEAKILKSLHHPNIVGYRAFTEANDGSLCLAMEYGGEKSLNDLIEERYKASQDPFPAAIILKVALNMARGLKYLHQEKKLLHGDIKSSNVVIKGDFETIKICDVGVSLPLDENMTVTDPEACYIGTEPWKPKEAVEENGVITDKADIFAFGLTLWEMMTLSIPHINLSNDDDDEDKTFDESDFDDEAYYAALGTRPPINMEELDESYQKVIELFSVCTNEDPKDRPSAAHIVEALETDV
The data set can be described thus: Microscale thermophoresis (MST) binding assay. The conditions noted are these: labeled TOPK 50 nM, 25°C, means ± SD for three experiments. The source says:
To validate results of the virtual ligand screening, we employed microscale therm ophoresis method (MST) to assay the binding affinity between compounds and TOPK. This technology detected fluorescent changes of molecules during thermophoresis, to quantify protein-protein interactions or protein-small molecule interactions with high sensitivity and low sample cost.
Human TOPK gene (Accssion number: NM_018492) was cloned into the pET26b vector (Novagen). The expression construct pET26b-TOPK was transformed into Escherichia coli strain BL21 (DE) (Invitrogen) and selected on kanamycin plates. The transformed cells were cultivated in Luria-Bertani (LB) media at 37°C in the presence of kanamycin until the optical density (OD) reached 0.8. Cells were then induced with 0.4 mM IPTG (isopropyl-β-D-1-thiogalactopyranoside) for 16 h at 20°C. The cells harvested by centrifugation were lysed by ultrasonication on ice in a buffer containing 20 mM Tris, pH 8.5, 200 mM NaCl, 5 mM mercaptoethanol, 0.1% TritonX-100, and 5% glycerol.
Soluble hexa-histidine tagged TOPK was bound to Ni-agarose affinity resin (Qiagen), washed with buffer A (20 mM Tris, pH 8.5, 200mM NaCl, and 10 mM imidazole), and eluted with buffer B (20 mM Tris, pH 8.8, 250 mM NaCl, and 150 mM imidazole).
Recombinant TOPK was labeled with the Monolith NT™ Protein Labeling Kit RED (Cat # L001) according to the supplied labeling protocol. Labeled TOPK was used in a concentration of 50 nM. The samples were diluted in a 20 mM HEPES (pH 7.4) and 0.5 (v/v) % Tween-20. The prazoles stocks were dissolved in 10% DMSO in a concentration of 1 mM. 1mM prazoles were used as the highest concentration for serial dilutions. After 10minutes incubation at room temperature, the samples were loaded into Monolith^TM standard-treated capillaries and the thermophoresis was measured at 25°C after 30 minutes incubation on a Monolith NT.115 instrument (NanoTemper Technologies, München, Germany). Laser power was set to 20% using 30 seconds on-time. The LED power was set to 100%. The dissociation constant Kd values were fitted by using the NTAnalysis software (NanoTemper Technologies, München, Germany).

Data set [1] has as its system HCT116 cells. The data set can be described thus: Cell viability (cck8) assay, HCT116. It counts as cell-based. As to conditions: Homo sapiens, HCT-116, read-out: IC50 for HCT116 cell activities. As to the method:
(§1) To estimate cell viability, human colon cancer HCT 116, ES-2, A549 and SW1990 cells (5000 cells/well) were seeded in 96-well plates for 24 h at 37°C in a 5% CO2 incubator. […] All experiments were performed in triplicate, and the mean absorbance values were calculated.

Data set [2] concerns HCT116 cells. The experiment in a line: Cell cycle distribution by flow cytometry, HCT116. It counts as cell-based, human. The conditions noted are these: HCT116, increasing doses, 48 hours.
The subject of data set [3] is A549, HCT116, ES-2 and SW1990 cells. The data set can be described thus: Cell viability (cck8) assay, 4 TOPK-positive cancer cell lines. It counts as cell-based. As to conditions: Homo sapiens; range over A549, HCT116, ES-2, SW1990; read-out: IC50 values, growth inhibition across the cell lines. As to the method:
TOPK protein levels were measured by western blot in cancer cell lines derived from various cancer types, such as lung cancer (A549), colon cancer (HCT116), human ovarian cancer (ES-2) and pancreatic cancer cell (SW1990).
as §1

Data set [4] relates to ES-2 cells. The data set can be described thus: Cell viability (cck8) assay, ES-2. As to conditions: Homo sapiens, read-out: IC50, growth of ES-2 cells. It counts as cell-based. As to the method: as §1
The test system of data set [5] is ES-2 cells. The experiment in a line: Apoptosis by flow cytometry (Annexin V/propidium iodide), ES-2. As to conditions: ES-2, 50 μM, 24 h; control 2%. In kind it is cell-based, human. As for the experimental part:
(§2) Cells were pre-treated with different concentrations of ilaprzole for 24 h, and then the cellular apoptosis was measured by using flow cytometry. […] Apoptotic cells were assessed by staining PBS washed cells with phycoerythrin (PE)-conjugated annexin-V (BD Pharmingen) for 10-15 minutes in incubation buffer (Annexin-V-FLUOS Staining Kit, Roche). Fluorescence was recorded by flow cytometry using the FACS Aria (BD Bio sciences).

The conditions of data set [6]: rat, in vivo; cited from earlier work.
Data set [7] relates to TOPK activity (phosphorylation of histone H3 Ser10) in HCT116 cells. The experiment in a line: Western blot of phosphorylated histone H3 (Ser10), HCT116. In kind it is cell-based, human. As to the method:
(§3) TOPK proteins were expressed mainly around chromosomal surfaces in mitotic cells, particularly at prophase and metaphase, so the histone was chosen as the substrate for TOPK activity evaluation. Some reports confirmed that TOPK could phosphorylate histone H3 in vitro and in vivo. […] (Figure 3a, 3b, Supplementary Figure 1a, 1b)
(§4) Histones were extracted from cells by disrupting the cells with NETN buffer [150 mM NaCl, 1 mM EDTA, 20 mM Tris-HCl (pH 8.0), 0.5% nonionic detergent IGEPAL CA 630(NP-40), Sigma]. The insoluble fraction was pelleted for 5 minutes in a microcentrifuge (8,400 rpm). Nuclei were extracted with 0.1 M HCl to isolate the total histones. The samples were precipitated with 1 M Tris- HCl (pH 8.0) and then resuspended in ddH2O.
(§5) The harvested cells were lysed with lysis buffer (50 mM Tris-HCl (pH 7.4), 150 mM NaCl, 1 mM EDTA, 1 mM EGTA, […], 5 mM phenylmethanesulfonyluoride (PMSF), 1 mM dithiolthreitol (DTT) containing 1% Triton X-100). Insoluble debris was removed by centrifugation at 12000 rpm for 15 minutes, and protein's content was determined using Bradford reagent (Bio-Rad, USA). Lysate protein (20-40 μg) was subjected to 10% SDS-PAGE and electrophoretically transferred to polyvinylidene difluoride membranes (PVDF) (Millipore, USA). […] Band density was quantified using the Image J software program (NIH).
On the technique in general: In western blotting, separated proteins are transferred to a membrane and probed.

The next data set relates to HCT116 xenograft. The experiment in a line: HCT116 xenograft mouse model, tumor growth. In kind it is in vivo, CB-17/Icr-scid mice. The conditions noted are these: for tumor weight: control 1.45 ± 0.33 g. As to the method:
(§6) Estimated tumor volumes of both treating groups were less than that of the control group throughout the treatment. […] Animals were then scarified and the average tumor weights were measured and calculated. The tumor weight of the control group was 1.45 ± 0.33 g, whereas the tumor weights of low-dose and high-dose treated groups were 0.67 ± 0.21g and 0.52 ± 0.11g, respectively (Figure 5c), representing significant reduction.
(§7) CB-17/Icr-scid mice were purchased from Beijing HFK Bioscience CO., LTD (Beijing, China). The animals were maintained under ‘specific pathogen free’ conditions. The mice were randomly divided into three groups: (i) vehicle group (n = 8); (ii) 150 mg/kg ilaprazole-treated group (n = 8); (III) 75 mg/kg ilaprazole-treated group. HCT 116 cells were inoculated subcutaneously (2 × 10^6 cells) into the left flank of each mouse in all groups. Treatment was started after 4 days of cell injection. The duration of the animal study was 19 days. The tumor volume was calculated from measurements of 3 diameters of the individual tumor based on the following formula:
tumor volume (mm^3) = (length × width × height × 0.52). The mice were monitored until tumors reached 1 cm^3 total volume, at which the mice were euthanized and the tumors were extracted. The tumors were dissected and sent for immune-histochemical analysis.

The subject of data set [8] is shTOPK and shMock infected cancer cells. The experiment in a line: Growth of shMock versus shTOPK infected cells (CCK8). In kind it is cell-based, human. As to conditions: 48 hours. The text has this: To investigate the growth-promoting role of TOPK in cancer cells, the expression of endogenous TOPK was knocked down in four cancer cells. By lentiviral infection, HCT116, ES-2, A549 and SW1990 cell lines stably expressing low levels of TOPK (shTOPK) were established. As the control, cells were infected with shMock. The abundance of TOPK in these cells was confirmed by western blot analysis (Figure 2a).
The effect of ilaprazolewas examined in shMock and knockdown cell lines with shTOPK. Cells were incubated for 48 hours and growth was determined by cck8 assay.
“The target sequences of oligo siRNAs were as follows: 5′-[…] -3′ for TOPK to produce lentiviral particles.”
The transfection medium was changed at 4 hours after transfection and then cells were cultured for 36 hours. The viral particles were harvested by filtration using a […] syringe filter, then combined with […] of polybrene (Millipore) and infected into 60% confluent HCT-116 cells overnight. The cell culture medium was replaced with fresh complete growth medium for 24 hours and then cells were selected with puromycin ([…]) for 36 hours. The selected cells were used for experiments.

On the set-up of data set [9]: method as in SciFinder Academic database. The conditions noted are these: ref SciFinder Academic database; cited from earlier work.
The test system of data set [10] is HCT116 cells. The data set can be described thus: Apoptosis by flow cytometry (Annexin V/propidium iodide), HCT116. In kind it is cell-based, human. As to conditions: HCT116, 50 μM, 24 h; control 2%. As to the method:
as §2
(In general: In flow cytometry, cells or beads pass a laser one at a time.)

Data set [11] in a line: HCT116 xenograft mouse model, toxicity and body weight. In kind it is in vivo, CB-17/Icr-scid mice. As to the method: as §6
as §7, with “formula: […]” for “formula:”

Data set [12] relates to TOPK activity (phosphorylation of histone H3 Ser10) in ES-2 cells. The data set can be described thus: Western blot of phosphorylated histone H3 (Ser10), ES-2. In kind it is cell-based, human. As for the experimental part:
as §3, §4, §5

For `CCSc1ccnc(C[S+]([O-])c2nc3ccccc3[nH]2)c1C` (centres unmarked) [Disuprazole, disuprazole], the dissociation constant (Kd) entry at TOPK is listed as “n.b^c”. Besides, the IC50 with HCT116 cells [1] is > 500 µM.

With `COc1ccc2nc([S@@+]([O-])Cc3ncc(C)c(OC)c3C)[nH]c2c1` [Esomeprazole, esomeprazole], the Kd result at TOPK is recorded as “n.b^c”. In addition, in the data set on HCT116 cells [1], the half-inhibitory concentration (IC50) is > 500 µM.

For the compound `COc1ccnc(C[S+]([O-])c2nc3cc(-n4cccc4)ccc3[nH]2)c1C` (centres unmarked) [Ilaprazole, ilaprazole], the cell cycle distribution result with HCT116 cells [2] is on record as “cell cycle arrested at the G1 phase”. The half-maximal inhibitory concentration (IC50) in [3] is 30.1 to 148 µM; in the data set on ES-2 cells [4], 33.2 ± 1 µM; in the data set with HCT116 cells [1] it was 40 ± 0.6 µM. Further, the Kd at TOPK (read-out: Kd) worked out at 111 ± 2.3 µM. For the same compound, the figures for the apoptotic death in the data set with ES-2 cells [5] and in the data set with HCT116 cells [10] were 7.62% and 32.03%, respectively. Besides, the LD50 entry in data set [6] is “more than 5000 mg/kg”. Also, the “phosphorylation of histone H3 (Ser10)” value in data set [7] and in [12] was “substantially attenuated in a dose-dependent manner” each time. Moreover, the tumor weight is on record as 0.67 ± 0.21 g with HCT116 xenograft (75 mg/kg daily via gavage (low-dose)) and 0.52 ± 0.11 g in the data set on HCT116 xenograft (150 mg/kg daily via gavage (high-dose)). Also, in the data set with HCT116 xenograft (75 and 150 mg/kg daily via gavage, after 2 weeks' treatment), the tumor volume entry was “Significant decreases”. Besides, the “phosphorylated histone H3 in tumor tissues (immunohistochemistry)” value in the data set with HCT116 xenograft (ilaprazole-treated groups versus vehicle group) was “substantially decreased”. Moreover, the “growth inhibition of shTOPK cells compared with shMock cells” value in data set [8] is recorded as “resistant to the inhibitory effect”. Besides, in data set [9], the logP value is 2.882 ± 1.045. Also, the “microstructures of sections of the liver, kidney and spleen” value in data set [11] (mice treated daily for 15 days) is given as “No significant damage”. Further, the hepatotoxicity and nephrotoxicity entry in [11] (mice, 75 and 150 mg/kg oral) was “no obvious hepatotoxicity and nephrotoxicity”. For the same compound, the mouse body weight result in [11] (mice, 75 and 150 mg/kg via gavage) is on record as “no effect”.

With `Cc1c(OCC(F)(F)F)ccnc1C[S+]([O-])c1nc2ccccc2[nH]1` (centres unmarked) [Lansoprazole, lansoprazole], the Kd on TOPK (read-out: Kd) is 241 µM and 242 µM. In the data set with HCT116 cells [1], the IC50 worked out at 103 ± 4.1 µM.

As to `COc1ccc2[nH]c([S+]([O-])Cc3ncc(C)c(OC)c3C)nc2c1` (centres unmarked) [Omeprazole, omeprazole], the Kd at TOPK (read-out: Kd) was 174 µM. Besides, the IC50 with HCT116 cells [1] stood at 348 ± 7.3 µM.

Take `COc1ccnc(C[S+]([O-])c2nc3ccc(OC(F)F)cc3[nH]2)c1OC` (centres unmarked) [Pantoprazole, pantoprazole]: the Kd at TOPK (read-out: Kd) is 24 µM and 24.2 µM. The logP value in data set [9] is listed as 1.571 ± 1.065. For the same compound, the IC50 in the data set with HCT116 cells [1] worked out at 153 ± 8.5 µM.

On to `COCCCOc1ccnc(C[S+]([O-])c2nc3ccccc3[nH]2)c1C` (centres unmarked) [Rabeprazole, rabeprazole], for which the Kd at TOPK (read-out: Kd) is 324 µM. In addition, in the data set with HCT116 cells [1], the IC50 is > 500 µM.
